# Assays:
# [1] = Half life in human plasma; format: ADME, cell-free
# [2] = Drug metabolism in human plasma assessed as release of the NSAID by LC-MS analysis; format: ADME, cell-free
# [3] = Half life in pH 7.4 PBS at 125 uM incubated at 37 degC by HPLC analysis; format: physicochemical
# [4] = Half life in human plasma at 125 uM by HPLC analysis; format: ADME, cell-free
# [5] = Half life in human plasma at 100 uM by HPLC analysis; format: ADME, cell-free
SMILES,half-life [1] [h],Drug metabolism [2],half-life at 125 µM [3] [h],half-life at 125 µM [4] [min],half-life at 100 µM [5] [h]
COc1ccc2c(c1)c(CC(=O)OCCC(=O)NCc1ccccc1)c(C)n2C(=O)c1ccc(Cl)cc1,> 3.6,Metabolite_Detected,,,
COc1ccc2cc([C@H](C)C(=O)OCCC(=O)NCc3ccccc3)ccc2c1,,Metabolite_Detected,> 48,4.7,
CC(C)Cc1ccc(C(C)C(=O)OCCC(=O)NCc2ccccc2)cc1 (stereo not given),,Metabolite_Detected,> 48,,
CC(C(=O)OCCC(=O)NCc1ccccc1)c1ccc(-c2ccccc2)c(F)c1 (stereo not given),,Metabolite_Detected,> 48,,1.83

# Source: ChEMBL document CHEMBL4339213, “Microwave-assisted synthesis and in vitro stability of N-benzylamide non-steroidal anti-inflammatory drug conjugates for CNS delivery” (Bioorg Med Chem Lett, 2019)
